Earlier results, collected in patent US20110039804A1, “Composition of Risedronate and Vitamin D3” (LANDSTEINER SCIENTIFIC, S.A. de C.V., priority 2006, published 2011).
Like-named read-outs stand apart in the source and are kept apart here.

Columns and labels:
[1] = system: patients with Paget's disease
[2] = Paget's disease, 35 mg daily for two months

CC(O)(P(=O)(O)O)P(=O)(O)O [etidronate]
Patients with normalized serum alkaline phosphatase concentration ([1]; Paget's disease, control group, etidronate 400 mg/day for 6 months): 11%

O=P(O)(O)C(O)(Cc1cccnc1)P(=O)(O)O [risedronate, 3-pyridil-1-hydroxyethylyden-1,1-bisphosphonic acid]
average distribution volume in a state of balance (humans): 6.3 L/kg | Tmax (single oral administration, studied range 2.5 mg to 30 mg single dose): approximately 1 hour | deoxypyridinoline/urinary creatinine ratio [1, 2]: Significantly reduced | hydroxyproline/urinary creatinine ratio [1, 2]: Significantly reduced | new fractures ([1]; Paget's disease, 35 mg daily for two months, x-rays before and after 6 months): no new fractures | Patients with normalized serum alkaline phosphatase concentration ([1]; Paget's disease, daily dose of 35 mg risedronate for two months): 77% | dimension of lithic lesions in the axial and appendicular skeleton ([1]; Paget's disease, x-rays before and after 6 months of treatment): Reduced | Patients staying on biochemical remission ([1]; during the 18 months following the two-month treatment): Fifty-three

O=P([O-])(O)C(O)(Cc1cccnc1)P(=O)(O)O.[Na+] [sodium risedronate]
systemic metabolism (in vivo): no evidence of systemic metabolism | effect of food on oral bioavailability (tablet administered with food): reduces | mid oral bioavailability (tablet, oral): 0.63%
